Measurements reported in publication PMC6207370 (Xenobiotica; the fate of foreign compounds in biological …, 2017).
“And” between values parts separate entries of the source, which are not always exact repeats. Identical values can stand only once. Like-named read-outs stand apart in the source and are kept apart here. Marks after values point to notes of the source that are not given here. One block for each molecule: values may come before it.

Tests used:
[1] = mouse; ref Hutzler JM, Cerny MA, Yang YS et al. (2014); cited from earlier work
[2] = rat; ref Hutzler JM, Cerny MA, Yang YS et al. (2014); cited from earlier work
[3] = Incubations with rhesus monkey hepatic S9; conditions: for Fm,AO Method A (fraction metabolized by AO) / Fm,AO Method B (fraction metabolized by AO): rhesus monkey hepatic S9; for Fm,AO Method A (fraction metabolized by AO): method A (eq. 4); for Fm,AO Method B (fraction metabolized by AO): method B (eq. 5), values > 1 assumed equal to 1; for E (estimated hepatic extraction ratio): rhesus monkey, E = CLHEP/QH from hepatic S9 (+NADPH)
[4] = Incubations with guinea pig hepatic S9; conditions: for Fm,AO Method A (fraction metabolized by AO) / Fm,AO Method B (fraction metabolized by AO): guinea pig hepatic S9; for Fm,AO Method A (fraction metabolized by AO): method A (eq. 4); for Fm,AO Method B (fraction metabolized by AO): method B (eq. 5), values > 1 assumed equal to 1; for E (estimated hepatic extraction ratio): guinea pig, E = CLHEP/QH from hepatic S9 (+NADPH)
[5] = Incubations with minipig hepatic S9; conditions: for CLint scaled at 1 μM: male, Gottingen, Table 1, triplicate, 2–3 experiments; for CLint scaled at 1 μM / E (estimated hepatic extraction ratio): minipig; for Fm,AO Method A (fraction metabolized by AO) / Fm,AO Method B (fraction metabolized by AO): minipig hepatic S9; for Fm,AO Method A (fraction metabolized by AO): method A (eq. 4); for Fm,AO Method B (fraction metabolized by AO): method B (eq. 5), values > 1 assumed equal to 1; for E (estimated hepatic extraction ratio): E = CLHEP/QH from hepatic S9 (+NADPH)
[6] = Incubations with human hepatic S9; conditions: for CLint scaled at 1 μM: both; for CLint scaled at 1 μM / E (estimated hepatic extraction ratio): human; for Fm,AO Method A (fraction metabolized by AO): method A (eq. 4); for Fm,AO Method B (fraction metabolized by AO): method B (eq. 5), values > 1 assumed equal to 1; for E (estimated hepatic extraction ratio): E = CLHEP/QH from hepatic S9 (+NADPH)
[7] = type: in vitro ADME
[8] = human; ref Hutzler JM, Cerny MA, Yang YS et al. (2014); cited from earlier work
[9] = cynomolgus monkey; ref Hutzler JM, Cerny MA, Yang YS et al. (2014); cited from earlier work
[10] = Incubations with mouse hepatic S9; conditions: for CLint scaled at 1 μM: male, CD-1, mouse, Table 1, triplicate, 2–3 experiments; for E (estimated hepatic extraction ratio): mouse, E = CLHEP/QH from hepatic S9 (+NADPH)
Allometric scaling = test: Allometric scaling; parameters: species or system human; conditions: for SSS Human Predicted S9 CLint: exponent 0.75
[11] = Incubations with rat hepatic S9; conditions: for CLint scaled at 1 μM: male, Sprague-Dawley, Table 1, triplicate, 2–3 experiments; for CLint scaled at 1 μM / E (estimated hepatic extraction ratio) / CLHEP (hepatic clearance): rat; for Fm,AO Method A (fraction metabolized by AO): method A (eq. 4); for Fm,AO Method B (fraction metabolized by AO): method B (eq. 5), values > 1 assumed equal to 1; for E (estimated hepatic extraction ratio): E = CLHEP/QH from hepatic S9 (+NADPH); for CLHEP (hepatic clearance): well-stirred model from S9 CLint (+NADPH), uncorrected for fraction unbound
[12] = Incubations with cynomolgus monkey hepatic S9; conditions: for Fm,AO Method A (fraction metabolized by AO): method A (eq. 4); for Fm,AO Method B (fraction metabolized by AO): method B (eq. 5), values > 1 assumed equal to 1; for E (estimated hepatic extraction ratio): cynomolgus monkey, E = CLHEP/QH from hepatic S9 (+NADPH)

SMILES: CN1CCC(Nc2ncc3ncnc(Nc4ccc(F)c(Cl)c4)c3n2)CC1 [BIBX1382]
- CLp (plasma clearance) [1]: 55^¶ mL/min/kg
- CLp (plasma clearance) [2]: 55^¶ mL/min/kg
- Fm,AO Method A (fraction metabolized by AO) [3]: 0.94
- Fm,AO Method B (fraction metabolized by AO) [3]: 0.86
- E (estimated hepatic extraction ratio) [3]: 0.72
- SSS Human Predicted CLp (Single-species scaling; single-species scaling from literature cynomolgus monkey CLp): 56 mL/min/kg and 56.0 mL/min/kg
- SSS Human Predicted CLp (Single-species scaling; single-species scaling from literature mouse CLp): 7.2 mL/min/kg
- SSS Human Predicted CLp (Single-species scaling; single-species scaling from literature rat CLp): 13.4 mL/min/kg
- Fm,AO Method A (fraction metabolized by AO) [4]: 0.65
- Fm,AO Method B (fraction metabolized by AO) [4]: 0.73
- E (estimated hepatic extraction ratio) [4]: 0.54
- CLint scaled at 1 μM ([5]; s9, pH 7.4, CLint (intrinsic clearance) in hepatic S9, minipig hepatic S9, in the presence of NADPH): 134 ± 5.69 mL/min/kg
- Fm,AO Method A (fraction metabolized by AO) [5]: 0.85
- Fm,AO Method B (fraction metabolized by AO) [5]: 0.96
- E (estimated hepatic extraction ratio) [5]: 0.83
- CLint scaled at 1 μM ([6]; s9, pH 7.4, CLint (intrinsic clearance) in hepatic S9, human hepatic S9, in the presence of NADPH, Table 1, triplicate, 2–3 experiments): 80.2 ± 9.61 mL/min/kg
- CLint scaled at 1 μM ([6]; s9, pH 7.4, CLint +NADPH +Hyd, human hepatic S9 containing NADPH and hydralazine (50 μM)): 5.83 ± 1.22 mL/min/kg
- CLint scaled at 1 μM ([6]; s9, pH 7.4, CLint −NADPH +Hyd, human hepatic S9 containing hydralazine (50 μM) without NADPH): 3.93 ± 1.75 mL/min/kg
- CLint scaled at 1 μM ([6]; s9, pH 7.4, CLint −NADPH, human hepatic S9 without NADPH): 69.6 ± 2.1 mL/min/kg
- Fm,AO Method A (fraction metabolized by AO) ([6]; human hepatic S9): 0.92
- Fm,AO Method B (fraction metabolized by AO) ([6]; human hepatic S9): 0.92
- Fm,AO (fraction metabolized by AO) ([6]; human hepatic S9, methods A and B taken together (data from Table 3)): 0.92
- E (estimated hepatic extraction ratio) [6]: 0.79
- E (estimated hepatic extraction ratio), across species ([7]; human, monkey, and minipig S9): 0.72 – 0.83
- CLp (plasma clearance) [8]: 25–55^¶ mL/min/kg
- CLp (plasma clearance) [9]: 118^¶ mL/min/kg
- CLint scaled at 1 μM ([10]; s9, pH 7.4, CLint (intrinsic clearance) in hepatic S9, mouse hepatic S9, in the presence of NADPH): 33.2 ± 7.1 mL/min/kg
- E (estimated hepatic extraction ratio) [10]: 0.27
- fold-error of human S9 CLint predicted by SSS (Allometric scaling; SSS from guinea pig): outside of 3-fold-error
- SSS Human Predicted S9 CLint (Allometric scaling; single-species scaling from cynomolgus monkey S9 CLint): 88.7 mL/min/kg
- SSS Human Predicted S9 CLint (Allometric scaling; single-species scaling from mouse S9 CLint): 4.3 mL/min/kg
- SSS Human Predicted S9 CLint (Allometric scaling; single-species scaling from rat S9 CLint): 7.5 mL/min/kg
- CLint scaled at 1 μM ([11]; s9, pH 7.4, CLint (intrinsic clearance) in hepatic S9, rat hepatic S9, in the presence of NADPH): 30.7 ± 3.56 mL/min/kg
- Fm,AO Method A (fraction metabolized by AO) ([11]; rat hepatic S9): 0.09
- Fm,AO Method B (fraction metabolized by AO) ([11]; rat hepatic S9): 0.69
- Fm,AO (fraction metabolized by AO) ([11]; rat hepatic S9, methods A and B taken together (data from Table 3)): ≤ 0.69
- CLint +NADPH +Hyd ([11]; rat hepatic S9 containing NADPH and hydralazine (50 μM)): 25.1 ± 6.29 mL/min/kg
- CLint +NADPH ([11]; rat hepatic S9 containing NADPH, Table 3 data set, triplicate): 27.6 ± 0.995 mL/min/kg
- E (estimated hepatic extraction ratio) [11]: 0.30
- CLHEP (hepatic clearance) [11]: 21.3 ± 1.73 mL/min/kg
- Fm,AO Method A (fraction metabolized by AO) ([12]; cynomolgus monkey hepatic S9): 1
- Fm,AO Method B (fraction metabolized by AO) ([12]; cynomolgus monkey hepatic S9): 1^#
- Fm,AO (fraction metabolized by AO) ([12]; cynomolgus monkey hepatic S9, methods A and B taken together (data from Table 3)): 1.0
- E (estimated hepatic extraction ratio) [12]: 0.80

- Fm,AO Method A (fraction metabolized by AO) [3]: 0.34
- Fm,AO Method B (fraction metabolized by AO) [3]: 0.14
- E (estimated hepatic extraction ratio) [3]: 0.40
- Fm,AO Method A (fraction metabolized by AO) [4]: 0.23
- Fm,AO Method B (fraction metabolized by AO) [4]: 0.03
- E (estimated hepatic extraction ratio) [4]: 0.41
- CLint scaled at 1 μM ([5]; hepatic S9, pH 7.4, CLint (intrinsic clearance) in hepatic S9, minipig hepatic S9, in the presence of NADPH): 25.4 ± 1.46 mL/min/kg
- Fm,AO Method A (fraction metabolized by AO) [5]: 0.18
- Fm,AO Method B (fraction metabolized by AO) [5]: 0.12
- E (estimated hepatic extraction ratio) [5]: 0.48
- CLint scaled at 1 μM ([6]; hepatic S9, pH 7.4, CLint (intrinsic clearance) in hepatic S9, human hepatic S9, in the presence of NADPH, Table 1, triplicate, 2–3 experiments): 7.1 ± 2.28 mL/min/kg
- CLint scaled at 1 μM ([6]; hepatic S9, pH 7.4, CLint −NADPH, human hepatic S9 without NADPH): 4.51 ± 0.31 mL/min/kg
- Fm,AO Method A (fraction metabolized by AO) ([6]; human hepatic S9): 0.36
- Fm,AO Method B (fraction metabolized by AO) ([6]; human hepatic S9): 0.61
- E (estimated hepatic extraction ratio) [6]: 0.25
- Fm,AO, across species ([7]; all species): 0.03 – 0.68
- E (estimated hepatic extraction ratio), across species ([7]; all species (human, mouse, rat, guinea pig, cynomolgus, rhesus, minipig) hepatic S9): 0.25 – 0.50
- CLint scaled at 1 μM ([10]; hepatic S9, pH 7.4, CLint (intrinsic clearance) in hepatic S9, mouse hepatic S9, in the presence of NADPH): 39.4 ± 7.19 mL/min/kg
- Fm,AO Method A (fraction metabolized by AO) ([10]; mouse hepatic S9, method A (eq. 4)): 0.33
- Fm,AO Method B (fraction metabolized by AO) ([10]; mouse hepatic S9, method B (eq. 5), values > 1 assumed equal to 1): 0.22
- E (estimated hepatic extraction ratio) [10]: 0.30
- fold-error of human S9 CLint predicted by SSS (Allometric scaling; SSS from cynomolgus monkey): outside of 3-fold-error
- fold-error of human S9 CLint predicted by multispecies allometry (MA) (Allometric scaling; minipig/rhesus/guinea pig combination, CLpred/CLobs): 3.0
- CLint scaled at 1 μM ([11]; hepatic S9, pH 7.4, CLint (intrinsic clearance) in hepatic S9, rat hepatic S9, in the presence of NADPH): 35.3 ± 6.39 mL/min/kg
- Fm,AO Method A (fraction metabolized by AO) ([11]; rat hepatic S9): 0.42
- Fm,AO Method B (fraction metabolized by AO) ([11]; rat hepatic S9): 0.28
- E (estimated hepatic extraction ratio) [11]: 0.33
- CLHEP (hepatic clearance) [11]: 23.3 ± 2.85 mL/min/kg
- Fm,AO Method A (fraction metabolized by AO) ([12]; cynomolgus monkey hepatic S9): 0.58
- Fm,AO Method B (fraction metabolized by AO) ([12]; cynomolgus monkey hepatic S9): 0.68
- E (estimated hepatic extraction ratio) [12]: 0.50
SMILES: Cn1cc(-c2ccc3nnc(Sc4ccc5ncccc5c4)n3n2)cn1 [SGX523]
